Data published in PMC3159312 (Enzyme Research, 2011).
Where two headings read alike, the source gives them in different places.

What was measured:
MtUGM [1] = target: T1, MtUGM (Mycobacterium tuberculosis, UniProt P9WIQ1); assay: Competitive binding FP inhibition assay (MtUGM)
T1 construct: made in house
Procedure: (§1) Each solution was done in triplicate. Anisotropy values were measured and the IC50 values obtained by fitting the data to (4), where m 1 and m 2 are the minimum and maximum anisotropy, respectively; m 3 is the slope, and m4 is the IC50.

AfUGM [2] = target: T2, AfUGM (Aspergillus fumigatus, UniProt Q4W1X2); details: previously determined; read-out: K d for AfUGM by directly monitoring the flavin fluorescence; cited from earlier work
T2 construct: made in house
T2 sequence (Q4W1X2 whole entry): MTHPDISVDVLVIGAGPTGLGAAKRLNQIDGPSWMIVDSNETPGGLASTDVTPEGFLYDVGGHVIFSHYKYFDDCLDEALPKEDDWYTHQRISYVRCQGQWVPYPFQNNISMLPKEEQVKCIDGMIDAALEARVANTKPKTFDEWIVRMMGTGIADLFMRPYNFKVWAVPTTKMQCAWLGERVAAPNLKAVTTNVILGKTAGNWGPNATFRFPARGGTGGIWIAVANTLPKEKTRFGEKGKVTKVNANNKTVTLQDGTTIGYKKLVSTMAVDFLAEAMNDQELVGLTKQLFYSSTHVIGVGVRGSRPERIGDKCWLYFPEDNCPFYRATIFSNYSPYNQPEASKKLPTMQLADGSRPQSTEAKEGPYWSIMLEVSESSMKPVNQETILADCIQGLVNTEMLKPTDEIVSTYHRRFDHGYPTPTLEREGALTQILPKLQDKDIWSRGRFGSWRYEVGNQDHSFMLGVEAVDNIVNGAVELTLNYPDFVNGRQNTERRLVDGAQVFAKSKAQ

AfUGM [3] = target: T2, AfUGM; assay: Competitive binding experiments using FP inhibition assay (AfUGM, chromophore 3 as probe)
Procedure: as §1

AfUGM [4] = target: T2, AfUGM; assay: AfUGM activity assay (formation of UDP-Galp from UDP-Galf by HPLC); format: biochemical; details: 0.5 mM UDP-Galf, 50 nM AfUGM, 37°C, 10 min
Procedure: A 20 μL reaction containing 20 mM dithiothreitol, 0.5 mM UDP-Galf in 25 mM HEPES, 125 mM NaCl buffer, pH 7.5 in the absence of 7 or 8 was initiated by the addition of AfUGM at a final concentration of 50 nM. After incubation at 37°C for 10 min, the reaction was quenched by heat denaturation (95°C for 5 min) in a DNA engine thermocycler (BioRad, Hercules, Calif, USA). The same reaction was also performed in the presence of 7 (500 μM) or 8 (50 μM). The suspension was centrifuged and the supernatant was injected onto a CarboPac PA100 (Dionex) anion-exchange column. The sample was eluted isocratically with 75 mM KH2PO4 (pH 4.5), and the absorbance at 262 nm was monitored to identify fractions of substrate and product.

AfUGM [5] = target: T2, AfUGM; assay: FP binding assay to determine chromophore binding affinities (AfUGM); details: for Kd: UDP-fluorescent probes, 15 nM chromophore, serially diluted AfUGM, 0.05 M sodium phosphate pH 7.0, fluorescence anisotropy, read-out: K d for AfUGM; for Binding to AfUGM relative to the UDP-fluorescein analogs (times better): ratio of Kd values
Procedure: Solutions containing various concentrations of chromophore in 0.05 M sodium phosphate buffer (pH 7.0) were added to 12 wells in a 96-well half area black bottom plate (Corning) with final volumes of 25 μL. FP was analyzed by a SpectraMax M5 plate reader (Molecular Devices). The parallel fluorescence emission (F=) and perpendicular fluorescence emission (F⊥) at 524 nm (for compounds 1 and 2, excitation at 492 nm) or at 584 nm (for compounds 3 and 4, excitation at 544 nm) were measured by a SpectraMax M5 plate reader (Molecular Devices), and the anisotropy (r) was calculated using (1), the minimal concentration at which stable FP signals with minimal standard deviations were chosen as the optimal concentration for the chromophore.
(1) r=F=−G·F⊥/F=+2G·F⊥ (2) y=m1+(m2−m1) ×(x+Ct+m3)−(x+Ct+m3)^2−4xCt/2Ct
Solutions containing serially diluted AfUGM and 15 nM of chromophore in 0.05 M sodium phosphate buffer (pH 7.0) were incubated at room temperature for 5 minutes. Each experiment was done in triplicate in a 96-well black bottom plate at final volumes of 25 μL. Fluorescence anisotropy was measured as indicated above, and the K d values were obtained by fitting the anisotropy data to (2), where m 1 and m 2 are the minimum and maximum anisotropy values, respectively; m 3 is the K d value, and the total concentration of UDP-chromophore is represented by C t.

MtUGM [6] = target: T1, MtUGM; assay: FP binding assay to determine chromophore binding affinities (MtUGM); details: UDP-fluorescent probes, fluorescence anisotropy; read-out: K d for MtUGM

T1 sequence (P9WIQ1 whole entry): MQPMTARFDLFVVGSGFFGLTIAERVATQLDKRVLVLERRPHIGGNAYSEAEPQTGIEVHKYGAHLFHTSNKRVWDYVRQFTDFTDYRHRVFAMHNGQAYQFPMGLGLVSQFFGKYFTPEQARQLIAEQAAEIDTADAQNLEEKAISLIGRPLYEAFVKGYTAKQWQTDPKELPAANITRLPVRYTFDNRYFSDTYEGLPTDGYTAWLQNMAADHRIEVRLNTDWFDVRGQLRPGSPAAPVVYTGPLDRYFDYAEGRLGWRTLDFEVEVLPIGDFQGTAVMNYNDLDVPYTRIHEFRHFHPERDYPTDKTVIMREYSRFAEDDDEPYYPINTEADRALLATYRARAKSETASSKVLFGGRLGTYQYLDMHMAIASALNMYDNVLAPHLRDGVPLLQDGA

SMILES	Kd (MtUGM [1])	Kd (AfUGM [3])	Kd (AfUGM [5])	Binding to AfUGM relative to the UDP-fluorescein analogs (times better) (AfUGM [5])	Kd (MtUGM [6])	other results
O=c1ccn([C@@H]2O[C@H](COP(=O)(O)OP(=O)(O)O)[C@@H](O)[C@H]2O)c(=O)[nH]1 [UDP]	–	–	–	–	–	Kd (MtUGM [1]; UGM ligands, FP competition, read-out: K d for MtUGM): 15 ± 2 µM; Kd (AfUGM [2]): 33 ± 9 µM; Kd (AfUGM [3]; read-out: K d for AfUGM): 9 ± 1.7 µM
O=C(Nc1ccccc1C(=O)O)c1ccc2c(c1)C(=O)N(c1ccc(Br)cc1)C2=O [compound 7]	21 ± 1 µM	140 ± 9 µM	–	–	–	Inhibition of AfUGM activity (conversion of UDP-Galf to UDP-Galp, HPLC) (AfUGM [4]; inhibitor 500 μM): inhibit the activity of AfUGM
CN(C)c1ccc2c(-c3ccc(C(=O)NCCCCCCOP(=O)(O)OP(=O)(O)OCC4OC(n5ccc(=O)[nH]c5=O)C(O)C4O)cc3C(=O)[O-])c3ccc(=[N+](C)C)cc-3oc2c1 (stereo not drawn) [Chromophore 3]	–	–	2.6 ± 0.2 µM	~ 6 times	0.73 ± 0.07 µM	–
O=C1N/C(=N/S(=O)(=O)c2ccccc2)S/C1=C1/C(=O)Nc2ccc([N+](=O)[O-])cc21 [compound 8]	25 ± 2 µM	11 ± 0.4 µM	–	–	–	Inhibition of AfUGM activity (conversion of UDP-Galf to UDP-Galp, HPLC) (AfUGM [4]; inhibitor 50 μM): inhibit the activity of AfUGM
CN(C)c1ccc2c(-c3ccc(C(=O)NCCOP(=O)(O)OP(=O)(O)OCC4OC(n5ccc(=O)[nH]c5=O)C(O)C4O)cc3C(=O)[O-])c3ccc(=[N+](C)C)cc-3oc2c1 (stereo not drawn) [Chromophore 4]	–	–	3 ± 0.7 µM	~ 6 times	> 30 µM	–
